The results in this text go back to a melting point compilation (Tetko et al.; mined from patent text by program, amines drawn as free bases though some values may be those of a salt).

What is called melting point is the temperature, or range, at which the solid turns liquid. `CC(CC(F)(F)CC(C)(C)O)C1CCC2C3CC=C4CC(O)CCC4(C)C3CCC12C` (stereo not given) yielded a melting point of 148 to 149 °C.

Compound `O=C(CCCN1CCOCC1)c1ccc2c(c1)Cc1cc(C(=O)CCCN3CCOCC3)ccc1S2` displayed a melting point of 90.5 to 91.5 °C.

Take `O=C(Nc1ccccc1)c1cc(Br)ccc1O`: the melting point is 229 to 230 °C.

Compound `CCON1C(C)(C)CC(OC(=O)c2ccccc2)CC1(C)C` came in with a melting point of 76 to 78 °C.

In the case of `Clc1ccc(-c2ccc(-c3ccccc3)s2)s1`, the melting point lay in the range of 128 to 132 °C.

`CCCCc1nc(S(=O)CC)c(C(=O)O)n1Cc1ccc(-c2ccccc2C(=O)O)cc1` (stereo not given) had a melting point of 186 °C.

In turn, `CC(C)S(=O)(=O)c1cc(OCc2ccccc2F)c2[nH]nc(Nc3nccs3)c2c1` returned a melting point of 268 to 269 °C.

The compound `O=Cc1csc(-c2ccccc2)c1` had a melting point of 64 to 65 °C.

Compound `O=C(O)C1CCc2c(c3ccccc3n2C(=O)c2ccc(Cl)cc2)C1` (stereo not given) registered a melting point of 210 to 211 °C.

Regarding `C=CCN(CC=C)Cc1csc(-c2ncn3c2[C@@H]2CCCN2C(=O)c2c(Cl)cccc2-3)n1`, the melting point fell in the range of 186 to 187 °C.

`O=C(O)CCCCCCCn1cc(-c2ccccc2)c(-c2ccccc2)n1` returned a melting point of 108 to 110 °C.

As to `CC(=NO)c1ccc(Cl)c(S(N)(=O)=O)c1`, the melting point lay within 157 to 158 °C.

`CC(=O)Oc1ccc2nc(S(N)(=O)=O)sc2c1` registered a melting point of 193 to 194 °C.

On to `CC1=C(CN(C)C(=O)N2CCN(C(N)=O)CC2)C(C)(C)CCC1`, for which the melting point was found to be 140 °C.

`CCCCc1nc(S)c(C(=O)OCC)n1Cc1cc2c(cc1Cl)OCO2` came in with a melting point of 114 °C.

The compound `Cc1ccc(N2CCN(CCC3CN(C)C(=O)O3)CC2)cc1` (stereo not given) registered a melting point of 96 to 97 °C.

Compound `CCNC(=O)c1ccc(F)cc1` gave a melting point of 73.2 to 76.3 °C.

`CC1CN(C)CC(NC(=O)c2n[nH]c3ccccc23)CN1Cc1ccccc1` (stereo not given) returned a melting point of 164 to 165 °C.

Compound `COC(=O)CSSc1cc(Oc2ccc(C(F)(F)F)cc2Cl)ccc1[N+](=O)[O-]` showed a melting point of 66 to 68 °C.

In turn, `CCOP(C)(=O)c1cc(Cl)ccc1Cl` (stereo not given) had a melting point of 90 to 91 °C.

Take `CCc1nnc(-c2ccc(OC)cc2)n1-c1ccc(N(C)C)cc1`: the melting point is 136 °C.

Turning to `Cc1ccc(S(=O)(=O)N2[C@H](CCCCC#N)CC[C@@H]2c2ccc(F)cc2)cc1` (racemic), the melting point is 79 °C.

Take `Cn1cc(-c2cc(-c3ccc4[nH]ncc4c3)ccn2)n(-c2ccc(C(C)(C)C#N)cc2)c1=O`: the melting point amounted to 165 °C.

With `COc1ccc(CCCCNC(=O)CCl)cc1OC`, the melting point was 94 to 95 °C.

`O=C(O)CC1CN(Cc2ccc(Cl)c(Cc3ccccc3)c2Cl)C(=O)N(c2ccc(Br)cc2)C1` (stereo not given) registered a melting point of 174 to 176 °C.

`CCCCCCCOC(=O)Cc1nc(-c2ccc(Cl)cc2)oc1-c1ccco1` showed a melting point of 69 to 70 °C.

`CN(C)C(=S)Nc1ccc(NNC=O)cc1` yielded a melting point of 187 to 189 °C.

With `CNc1ccc(Cl)cc1-c1nnc(C(F)(F)F)n1CC(=O)N1CCOCC1`, the melting point lay in the range of 152 to 153 °C.

Regarding `CN(C)Cc1c(-c2ccccn2)[nH]c2ncnc(Nc3cccc(Cl)c3)c12`, the melting point lay within 247 to 251 °C.

`CCOC(=O)C(=O)Nc1ccc(C(N)=O)c(C(N)=O)c1` registered a melting point of 229 to 230 °C.

In turn, `O=C1CC(O)CC(C=Cc2c3c(nn2-c2ccc(F)cc2)C(Cc2ccccc2)CCC3)O1` (racemic) yielded a melting point of 185 to 187 °C.

Turning to `Cc1c(C#N)c(=O)oc2c(C)c(O)c(CC(Br)CBr)cc12` (stereo not given), the melting point fell in the range of 175 to 176 °C.

As for `Cc1c(C)c2c(c(C)c1NC(=O)CC(C)(C)C)OC(C)(C)C2Cc1ccccc1` (stereo not given), the melting point lay in the range of 209 to 210 °C.

Regarding `CCc1cccc2c3c([nH]c12)C(C)(CC(=O)O)CCCC3` (stereo not given), the melting point was 148 to 151 °C.

`CC(C)(C)c1ccc(NC(=O)Nc2cccc(C(=O)O)c2)cc1`: the melting point was 147 to 148 °C.

Turning to `CC(C)(O)c1cnn2c(-c3ccc(F)c(-c4cccnc4)c3)cnc2n1`, the melting point was in the range of 199 to 200 °C.

Consider `CCOC(=O)c1cc(C(=O)NC)nc(C(=O)NC)c1`, for which the melting point lay in the range of 183 to 184 °C.

Regarding `C=Cc1cnc2c([N+](=O)[O-])cccc2c1`, the melting point is 116 to 117 °C.

`CCCSc1ccc(N)c([N+](=O)[O-])c1` gave a melting point of 36.5 to 38 °C.

`COc1cc(OCC(=O)O)c(C)cc1SCc1ccc(-c2ccc(C(F)(F)F)cc2)cc1` gave a melting point of 170 to 171 °C.

As to `COC(=O)CNC(=O)c1cc(Cl)nc(Cl)c1`, the melting point lay within 140 to 141 °C.

In turn, `COc1cc(OC)c2c(=O)[nH]c(-c3ccc(OCC(=O)O)c(OC)c3)nc2c1` yielded a melting point of 275 to 277 °C.

On to `COc1cc(COc2nn(-c3ccccc3)cc2C=O)ccc1OCc1nc(-c2ccccc2)cn1C`, for which the melting point is 126 to 127 °C.

With `O=S(=O)(c1ccc(Cn2cnnn2)cc1)C1CCN(CCc2ccc(F)cc2F)CC1`, the melting point was 168 to 169 °C.

With `CCOC(=O)c1cc(C(=O)OCC)c(=O)[nH]c1C`, the melting point was in the range of 195 to 197 °C.

For `Cc1ccc(-c2nc3ccc(OCCN4CCCCC4)cc3n2-c2ccccc2)cc1C`, the melting point was 111 °C.

With `Cc1cc(Oc2cccc(C(F)(F)F)c2)nn1C(=O)Nc1ccc(F)c(F)c1F`, the melting point is 102 to 104 °C.

Regarding `CC(=O)NC(=O)N1CCSC1c1ccccc1OCCN1CCN(c2cccc(F)c2)CC1` (stereo not given), the melting point was 142 to 143 °C.

`OC(COc1ccccc1Cl)(Cn1cncn1)Cn1cncn1`: the melting point came out at 95 °C.

`CCCN(CCC)C(=O)n1cnc(S(=O)CCC)n1` (stereo not given) came in with a melting point of 50 to 52 °C.

For the compound `CCOC(=O)c1c(C)nc2sc(C)nc2c1NCCCN(C)C`, the melting point was 53 to 54 °C.

As for `CCCCNC(=S)Nc1ccc(NNC=O)c(OC)c1`, the melting point was 130 to 132 °C.

Turning to `COC(=O)c1cnc(N2CCN(Cc3ccccc3)CC2)nc1OC`, the melting point lay within 135 to 138 °C.

Take `C#CCN(Cc1cc2c(=O)[nH]c(COS(C)(=O)=O)nc2cc1Cl)c1ccc(C(=O)OC(C)(C)C)cc1`: the melting point fell in the range of 178 to 181 °C.

For the compound `CC(=O)OC[C@H](Cc1ccccc1)NC(=O)[C@H](Cc1ccccc1)NC(=O)c1ccccc1`, the melting point was 186 to 187 °C.

On to `C=Cc1ccc(C=O)cc1`, for which the melting point was 65.9 °C.

The compound `CCOc1ccc(N)cc1OC` gave a melting point of 54 to 56 °C.

The compound `CCCCCCCCCCCCCCCCC(OC)C(=O)OC` (stereo not given) had a melting point of 33 to 36 °C.

On to `CCc1c(O)cc(O)c(C(=O)c2ccc(OC)cc2)c1CC(=O)N(CCO)CCN1CCOCC1`, for which the melting point was 235 to 237 °C.

With `COc1cc2ncc(OC3CCC(OC)CC3)nc2cc1OC` (stereo not given), the melting point is 85 to 90 °C.

`CCc1nc(N)nc(N)c1-c1ccc(Cl)c(N=NN(CCO)C(C)(C)C)c1` showed a melting point of 224 to 225 °C.

For the compound `O=c1oc2ccccc2c(OCCCN2CCOCC2)c1-c1ccccc1`, the melting point was 82 °C.

`OCC(O)(Cc1ccc(Cl)cc1Cl)c1cccnc1` (stereo not given) gave a melting point of 158 to 159 °C.

Consider `COc1cc(C(N)=O)ccc1OCCCN1CCC(c2noc3cc(F)ccc23)CC1`, for which the melting point was in the range of 163 to 164 °C.

`COCCOc1ccc(/C=C/C(=O)O)c(OCC2CCCO2)c1` (stereo not given) yielded a melting point of 106 to 108 °C.

`CC(C)Cn1nccc1-c1nn(-c2cccc(C(F)(F)F)c2)ccc1=O`: the melting point was in the range of 120 to 121 °C.

`CC(C)(C)NC(=O)c1ccc(Cl)c(C(F)(F)F)c1`: the melting point is 131 °C.

For `CN1CCN(CCCNc2ncc3cc(-c4c(Cl)cccc4Cl)c(NC(=O)Nc4cccc5ccccc45)nc3n2)CC1`, the melting point fell in the range of 186 to 189 °C.

As to `CCOC(OCC)c1cccc2c1Sc1c(C=O)cccc1N2C`, the melting point was 154 °C.

In turn, `CC1SC(=O)NN=C1c1ccc2c(c1)C(=Nc1ccc(N(C)C)cc1)C(=O)N2` (stereo not given) showed a melting point of 261 °C.

`O=C1CC=Nc2cc3c(cc21)OCO3`: the melting point was 276 °C.

In turn, `COC(=O)C=C1NC(C)(CO)COC1=O` (stereo not given) came in with a melting point of 62 to 63 °C.

`N#Cc1ccc(-c2ccc(OS(N)(=O)=O)c(Cl)c2)cc1Cn1cncn1` had a melting point of 155 to 158 °C.

For the compound `OCCCCCCn1nc(-c2ccccc2)c(-c2ccccc2)c1-c1ccccc1`, the melting point was 76 to 78 °C.

On to `CCCCC(=NNC(=O)OCC)c1ccncc1`, for which the melting point is 102 °C.

For the compound `COc1ccc(C2CCN(C(=O)N3CCC(Nc4ccc(CCNC[C@H](O)COc5ccc(O)cc5)cc4)CC3)CC2)cc1OC1CCCC1`, the melting point lay within 92 to 95 °C.

`Cc1noc(NS(=O)(=O)c2ccc(NCc3ccccc3)cc2)c1C` showed a melting point of 47 to 48 °C.

With `Fc1cnc2[nH]ccc2c1`, the melting point came to 110 °C.

For the compound `CCCOc1cc2c(=O)cc(C(=O)O)[nH]c2ccc1=O`, the melting point was greater than 250 °C.

The compound `CCOC(=O)C(=C1SC(=S)N(CC(=O)O)C1=O)c1csc(NC(=O)c2ccccc2)n1` came in with a melting point of 278 to 281 °C.

`CCOC(=O)c1c(C)nc(-c2ccccc2)nc1-c1cccc(C(F)(F)F)c1` yielded a melting point of 59 to 60 °C.

Turning to `CC(C)=NOCc1nc2c(N)nc(C)c(C)c2n1CCCCNC(=O)c1ccccc1`, the melting point is 206 to 208 °C.

`Cc1cn(C)c2c1C(=O)CC(c1ccccc1)C2` (stereo not given): the melting point lay in the range of 155 to 156 °C.

In the case of `CCOC(=O)[C@H](CCc1ccccc1)NC(=O)C1(NC(=O)[C@@H](SC(C)=O)C2CCOCC2)CCCC1`, the melting point was 107 to 111 °C.

Regarding `CC1(C)C=C(C(=NC2CC2)NC#N)c2cc([N+](=O)[O-])ccc2O1`, the melting point lay within 206 to 207 °C.

Compound `O=S(=O)(OS(=O)(=O)C1CCCCC1)C1CCCCC1` showed a melting point of 97 to 100 °C.

Compound `Oc1ccc2c(c1)OC=C(CN1CCN(C(c3ccc(F)cc3)c3ccc(F)cc3)CC1)O2` registered a melting point of 190 °C.

Compound `Cc1ccc2c(c1)[nH]c(=O)n2CCCO` showed a melting point of 114 °C.

For `O=C(NCc1ccc(Cl)cc1)c1cn2c3c(cc(CN4CCOCC4)cc3c1=O)CN(Cc1ccccc1)C2=O`, the melting point fell in the range of 201 to 204 °C.

For `CCCc1n[nH]cc1-c1nsc(Nc2ccccn2)n1`, the melting point lay in the range of 248 to 250 °C.
